The test system of data set [1] is DENV2 NGC. Briefly: Efficacy study (EC50) in DENV2 infected Vero cells, plaque titration. It counts as cell-based, Dengue virus. The note with it: for EC50: DENV2 NGC (M.O.I. of 0.1) infected Vero cells, plaque titration, 3 days; for TI (therapeutic index, CC50/EC50): Vero CC50 / DENV2 EC50. Here is the method:
Next, we studied the efficacies (EC50) of the phenolic lipid homologues against DENV2 infectivity in Vero cells. Briefly, compounds at 10 different concentrations were added to DENV2-infected Vero cells (M.O.I. of 0.1) during and post infection and the viral inhibition was determined by plaque titration. […] Noted that anacardic acids were major components of CNSL extracts and all homologues were purified directly from CNSL itself.
Next, each homologue was analyzed for effective concentration (EC50). Vero (5 × 10^4) cells were seeded, and infected with DENV2 (M.O.I. of 0.1) as previously described. Phenolic lipid mixtures and homologues were serially diluted in DMSO to the final concentrations as follows; 0, 0.5, 1, 1.5, 2, 2.5, 5, 7.5, 10, 25, and 50 µM. DMSO at the concentration of 1% was used as a mock treatment referring to 100% infection. Infected cells were treated with the designated compounds during and post infection. Supernatants were collected at 3 days after infection for analysis of virion production by plaque titration. Non-linear regression analysis was used to determine the effective concentrations. […] The therapeutic index (TI) was a ration of CC50/EC50 of the compound.

The nature of data set [2]: Cytotoxic concentration (CC50), MTS. It counts as cell-based. As to conditions: African green monkey, Vero cells. The method, then: Cytotoxic concentrations (CC50) were also studied using Vero cells. Briefly, the 10^4 cells were seeded into each well of 96-well plates. After an overnight incubation, phenolic lipids were serially diluted in DMSO to the final concentrations as follows; 25, 50, 100, 200, 300, 400, and 500 µM. Each concentration was performed in quadruplicates. DMSO at 1% was used as a mock treatment referring to 100% cell viability. Cells were incubated for 48 h before cell viability was accessed using CellTiler 96® Aqueous One Solution Cell Proliferation Assay kit (Promega, Wisconsin, USA). Non-linear regression analysis was used to determine cytotoxic concentrations (CC50) of each experiment.

Data set [3] has as its system hepatitis C virus (HCV). On the set-up: method as in PMID 25658101. The note with it: cited from earlier work.
In data set [4] the test system is K562. Set-up: method as in PMID 25726174. As to conditions: cited from earlier work.
Data set [5] concerns AGS. Set-up: method as in PMID 25726174. As to conditions: cited from earlier work.
The nature of data set [6]: Solubility in DMSO. It counts as physicochemical.
Data set [7] concerns BHK-21/DENV2 replicon cells. Nature of the data set: Replicon inhibition study, RT-qPCR of DENV2 NS1. It counts as cell-based, Dengue virus. As to conditions: 72 h. Here is the method:
We analyzed the replication inhibition using BHK-21/DENV2 replicon cells stably expressed the non-structural proteins. Cardol triene at 10 µM and 20 µM were added to the replicon cells for 72 h and the replication inhibition was accessed by RT-qPCR of DENV2 NS1. Ribavirin, a known inhibitor of flaviviral replication, was used as a positive inhibition control. […] Replicon cell viability under cardol triene treatment was also analyzed using an MTS assay. […] Therefore, we concluded that cardol triene inhibited DENV RNA replicon replication, potentially in dose-dependent manner.
BHK-21 (5 × 10^4) cells expressing DENV-2 replicon (BHK-21/DENV2)[44] were seeded as previously described. Cardol triene at 10 µM and 20 µM, DMSO, and ribavirin (TargetMol, USA) were added to the replicon cells and incubated at 37 °C for 3 days. Cells lysates were collected and viral RNA was quantified by RT-qPCR as previously described. Data were reported as percent inhibition compared with ribavirin. Three biological replicates were performed and results were means and SEM of all replicates.
(In general: A replicon is a self-replicating genome or part of one, used to study replication in cells.)

Where [8] appears, read: Dengue virus, 72 h, read-out: EC50.

Read-outs that look alike come from different tables or passages of the source.

The term EC50 denotes the concentration that produces a half-maximal response. Regarding `CCC/C=C/C/C=C/CCCCCCCc1cccc(O)c1C(=O)O` [Anacardic acid diene, 6-[8(Z), 11(Z)-pentadecadienyl]salicylic acid], the concentration for a half-maximal effect (EC50) entry in data set [1] was “Not inhibited”. Also, the CC50 at 48 h in data set [2] was determined as 112 ± 8.57 µM.

For the compound `CCCCCC/C=C\CCCCCCCc1cccc(O)c1C(=O)O` [Anacardic acid monoene, 6-[8(Z)-pentadecenyl]salicylic acid], the EC50 in data set [1] (setting [8]) was 12.6 ± 0.84 µM. Also, the “TI (therapeutic index, CC50/EC50)” value in data set [1] was 5.88. In data set [2], this compound had a CC50 at 48 h of 74 ± 0.85 µM.

As for `CCCCCCCCCCCCCCCc1cccc(O)c1C(=O)O` [Anacardic acid saturated, 6-pentadecylsalicylic acid], the values for the EC50 in data set [1] (setting [8]) and in data set [3] were 4.31 ± 1.17 µM and 7.25 µM, respectively. Moreover, the “TI (therapeutic index, CC50/EC50)” value in data set [1] is 15.39. Moreover, in data set [2], the CC50 at 48 h was 66.3 ± 1.58 µM. Besides, the CC50 in data set [4] is 25.4 µM; in data set [5], 41.6 µM.

As to `C=CC/C=C/C/C=C/CCCCCCCc1cccc(O)c1C(=O)O` [Anacardic acid triene, 6-[8(Z), 11(Z), 14-pentadecatrienyl]salicylic acid], the EC50 in data set [1] (setting [8]) turned out to be 7.48 ± 2.14 µM. Further, the “TI (therapeutic index, CC50/EC50)” value in data set [1] is 15.38. In addition, the CC50 at 48 h in data set [2] stood at 115 ± 14.1 µM.

In the case of `CCCCCCCCCCCCCCCc1cccc(O)c1` [Cardanol saturated], the EC50 in data set [1] (setting [8]) is 5.89 ± 2.83 µM. Besides, in data set [1], the “TI (therapeutic index, CC50/EC50)” value stood at 7.39. In data set [2], this compound yielded a CC50 at 48 h of 43.5 ± 1.1 µM.

For the compound `C=CC/C=C/C/C=C/CCCCCCCc1cccc(O)c1` [Cardanol triene, 3-[8(Z), 11(Z), 14-pentadecatrienyl]phenol], the “solubility in DMSO” value in data set [6] is “insoluble”.

As for `CCCCCCCCCCCCCCCc1cc(O)cc(O)c1` [Cardol saturated], the EC50 in data set [1] (setting [8]) was 12.7 ± 0.67 µM. Also, the “TI (therapeutic index, CC50/EC50)” value in data set [1] is recorded as 4.62. Besides, the CC50 at 48 h in data set [2] was found to be 58.75 ± 0.43 µM.

With `NC(=O)c1ncn([C@@H]2O[C@H](CO)[C@@H](O)[C@H]2O)n1` [ribavirin, reference compound], the “DENV2 RNA inhibition” value was determined as 98.42 ± 0.68% in data set [7] (10 µM) and 98.09 ± 0.72% in data set [7] (20 µM).

(Values after publication PMC6226472, “Cardol triene inhibits dengue infectivity by targeting kl loops and preventing envelope fusion” (Scientific Reports, 2018).)
